Assay results from patent US20180057538A1, “POTENT AND HIGHLY SOLUBLE PEGYLATED COMPSTATIN PEPTIDES” (The Regents of the University of California, priority 2016, published 2018).
Where two headings read alike, the source gives them in different places. Positions of bridges follow the written chain, without caps; N, C: chain ends. Primed or numbered codes have the meaning given here. PEG8′ = 8 PEG blocks attached at the backbone of the C-terminal amino acid

What was measured:
complement activation [1] = conditions: alternative pathway-mediated erythrocyte lysis assay; cited from earlier work
complement activation [2] = test: Hemolytic assay (rabbit erythrocytes lysed by normal human serum in VBS-MgEGTA); assay type: cell-based; conditions: ligand concentration at 50% maximal inhibition, triplicate runs (N = 3)
Protocol: Rabbit erythrocytes (Complement Technology, Inc, Tyler, Tex., USA) were washed with PBS and then resuspended in a veronal-buffered saline solution containing 5 mM MgCl2 and 10 mM EGTA (VBS-MgEGTA). Two-fold serial dilutions of the compstatin analogs were performed in round-bottom 96-well plates and then further diluted in VBS-MgEGTA. Normal human serum (NHS; Complement Technology, Inc) diluted in VBS-MgEGTA was added to each well followed by incubation at ambient temperature for 15 minutes. Subsequently, 30 μL of rabbit erythrocytes at a concentration of 1.25×10^8 cells/mL were added to each well. Positive controls for lysis consisted of: (1) erythrocytes in deionized water and (2) erythrocytes in NHS diluted with VBS-MgEGTA. Negative controls for lysis consisted of: (1) erythrocytes in VBS-MgEGTA and (2) erythrocytes in NHS diluted in VBS-EDTA. Next, plates were incubated at 37° C. for 20 minutes and then ice cold VBS containing 50 mM EDTA was added to each well to quench hemolytic reactions. Plates were centrifuged at 1000×g for 5 minutes and the supernatant was diluted 1:1 with deionized water in flat-bottom 96-well plates. Absorbance was measured spectrophotometrically at 405 nm to quantify lysis.

[3] = Apparent solubility measurements in PBS pH 7.4; assay type: physicochemical; conditions: PBS pH 7.4, 5-10 mg/mL
Protocol: Compstatin analogs were dissolved in phosphate buffered saline (PBS) at pH 7.4 to concentrations of 10, 7.5, and 5 mg/mL. At each concentration point, the peptide solutions were vortexed for 30 seconds and then centrifuged at 13000×g for 5 minutes. The supernatant was collected and measured 5 times spectrophotometrically at 280 nm. Optical densities were converted into concentration according to Beer-Lambert law. An extinction coefficient of 11125 M^−1 cm^−1 was used for each compstatin analog since each peptide contains two tryptophan amino acids (tryptophan extinction coefficient being 5562.5 M^−1 cm^−1).

[4] = system: NHS-induced basal C5b-9n deposition by RPE cells; test: Human RPE cell-based assay, anti-C5b-9n immunofluorescence of sub-RPE deposits; conditions: for reduction in NHS-induced basal C5b-9n deposition: 2 μM peptide, 10% NHS, 24 h, decellularized whole mounts, normalized to NHS-treated samples
Protocol: The in vitro model of drusen biogenesis was used according to Johnson et al. (Proceedings of the National Academy of Sciences of the United States of America 2011; 108(45):18277-82) and used in assessing the efficacy of compstatin peptides. Briefly, human fetal RPE cells within the second passage were grown on laminin-coated porous inserts (Millipore, Billerica, Mass., USA) in Miller medium supplemented with 5% fetal bovine serum (FBS, HyClone, Logan, Utah, USA) at 37° C. and 5% CO2 in a humidified incubator. After culturing for 2-3 months, cells were rinsed with PBS and treated with Miller medium containing either 5% FBS (negative control) or 10% NHS without or with the inhibitory peptides (2 μM). The choice of 2 μM dose for this assay was based on the intent to use double the IC50 concentration, which was determined to be ˜1 μM. All inhibitory peptides were pre-mixed with NHS on a rocker at room temperature for 30 min and then warmed to 37° C. prior to addition to RPE cell cultures for 24 h. […]
Immunolabeled RPE sections and decellularized culture inserts were imaged using a Leica SP5 confocal microscope. Single-plane images from multiple non-overlapping areas were acquired using a 63× objective, and C5b-9n (MAC) immunofluorescence signals were quantified using ImageJ (NIH), as described Gorham et al. (Experimental Eye Research 2013; 116:96-108). Briefly, the thresholding tool of ImageJ was used to analyze each color channel separately, with the upper threshold set to include C5b-9n-associated fluorescence and the lower threshold set to eliminate any background fluorescence. For statistical analysis, fluorescence intensity measurements of C5b-9n were averaged with respect to the number of RPE nuclei per image (for vibratome sections) or total image area (for decellularized whole-mount samples) and then expressed as a percentage of the corresponding fluorescence intensities from samples exposed to NHS in the absence of any inhibitory peptide (positive control). All data were obtained from multiple images (n≧9) and expressed as mean±SEM. […]

[5] = target: complement C3 in normal human serum (human, UniProt P01024 23-1663); test: cell-based or functional assay
Chain of complement C3 in normal human serum (P01024 23-1663 limits assumed): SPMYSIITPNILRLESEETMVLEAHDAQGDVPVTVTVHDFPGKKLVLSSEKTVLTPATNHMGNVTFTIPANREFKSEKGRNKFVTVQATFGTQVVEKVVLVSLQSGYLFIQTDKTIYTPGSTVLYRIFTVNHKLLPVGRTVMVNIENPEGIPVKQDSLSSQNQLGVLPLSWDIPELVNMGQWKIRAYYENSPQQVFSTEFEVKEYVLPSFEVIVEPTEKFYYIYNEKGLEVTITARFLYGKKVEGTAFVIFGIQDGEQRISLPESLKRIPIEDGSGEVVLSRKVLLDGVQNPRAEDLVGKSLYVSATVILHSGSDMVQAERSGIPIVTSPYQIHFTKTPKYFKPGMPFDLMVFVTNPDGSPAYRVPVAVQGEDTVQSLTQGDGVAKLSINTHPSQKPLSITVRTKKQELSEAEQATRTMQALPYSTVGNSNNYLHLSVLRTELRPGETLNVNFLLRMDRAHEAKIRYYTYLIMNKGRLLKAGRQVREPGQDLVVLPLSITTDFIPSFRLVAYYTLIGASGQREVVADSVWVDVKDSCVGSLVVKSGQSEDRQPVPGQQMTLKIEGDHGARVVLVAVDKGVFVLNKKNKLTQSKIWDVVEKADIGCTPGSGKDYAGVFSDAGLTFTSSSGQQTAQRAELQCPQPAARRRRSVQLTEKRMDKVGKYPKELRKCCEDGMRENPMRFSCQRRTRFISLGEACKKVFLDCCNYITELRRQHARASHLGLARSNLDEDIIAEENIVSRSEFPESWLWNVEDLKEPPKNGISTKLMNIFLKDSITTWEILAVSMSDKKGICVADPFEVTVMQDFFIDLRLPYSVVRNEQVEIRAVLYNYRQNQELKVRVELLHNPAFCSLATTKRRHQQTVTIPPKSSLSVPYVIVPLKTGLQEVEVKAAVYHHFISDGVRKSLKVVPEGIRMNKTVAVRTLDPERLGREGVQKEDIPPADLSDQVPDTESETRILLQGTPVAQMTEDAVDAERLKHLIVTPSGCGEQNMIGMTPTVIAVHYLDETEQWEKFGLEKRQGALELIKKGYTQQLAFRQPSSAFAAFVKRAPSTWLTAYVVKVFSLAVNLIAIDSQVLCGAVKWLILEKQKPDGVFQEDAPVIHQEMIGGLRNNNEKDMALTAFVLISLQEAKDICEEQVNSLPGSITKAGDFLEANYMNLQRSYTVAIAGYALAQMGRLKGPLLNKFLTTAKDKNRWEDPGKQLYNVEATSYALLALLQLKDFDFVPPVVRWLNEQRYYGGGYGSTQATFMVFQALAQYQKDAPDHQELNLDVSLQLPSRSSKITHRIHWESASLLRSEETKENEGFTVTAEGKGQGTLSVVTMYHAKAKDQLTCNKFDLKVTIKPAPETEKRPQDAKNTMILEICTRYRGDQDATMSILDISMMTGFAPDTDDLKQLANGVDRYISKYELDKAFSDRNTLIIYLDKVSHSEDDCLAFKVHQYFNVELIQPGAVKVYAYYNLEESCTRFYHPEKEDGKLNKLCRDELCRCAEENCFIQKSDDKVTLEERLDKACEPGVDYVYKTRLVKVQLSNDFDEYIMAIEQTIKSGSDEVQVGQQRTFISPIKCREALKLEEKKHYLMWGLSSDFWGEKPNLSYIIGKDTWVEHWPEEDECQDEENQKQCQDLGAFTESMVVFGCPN

[6] = target: T1, purified C3c (Complement Technology) (UniProt P01024 23-667; P01024 749-954; P01024 1321-1663, limits assumed); test: competitive microscale thermophoresis (Monolith NT.115); Peptide 2 titrated against Cy5-labeled Competition Peptide on purified C3c
T1 construct: domain: C3c; C3c is a multi-chain proteolytic fragment of C3; also called complement protein C3c
T1 sequence (P01024 23-667 limits assumed, chain 1 of 3): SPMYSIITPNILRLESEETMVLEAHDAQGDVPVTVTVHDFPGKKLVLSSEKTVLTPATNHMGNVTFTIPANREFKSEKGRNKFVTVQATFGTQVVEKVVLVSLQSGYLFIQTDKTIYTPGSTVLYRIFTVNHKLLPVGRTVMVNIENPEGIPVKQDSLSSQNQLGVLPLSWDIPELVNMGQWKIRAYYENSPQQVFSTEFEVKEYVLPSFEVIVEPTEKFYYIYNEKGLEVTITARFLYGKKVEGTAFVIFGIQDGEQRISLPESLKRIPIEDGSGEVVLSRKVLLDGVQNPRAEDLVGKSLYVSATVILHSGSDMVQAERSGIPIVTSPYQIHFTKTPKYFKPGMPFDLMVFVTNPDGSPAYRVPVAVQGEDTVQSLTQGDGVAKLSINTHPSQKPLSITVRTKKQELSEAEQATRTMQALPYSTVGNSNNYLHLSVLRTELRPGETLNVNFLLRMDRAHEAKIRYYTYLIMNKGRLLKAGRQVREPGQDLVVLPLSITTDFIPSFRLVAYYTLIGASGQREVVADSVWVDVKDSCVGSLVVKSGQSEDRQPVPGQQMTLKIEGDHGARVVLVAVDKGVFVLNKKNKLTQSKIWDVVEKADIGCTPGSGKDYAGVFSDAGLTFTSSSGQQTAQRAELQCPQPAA
T1 sequence (P01024 749-954 limits assumed, chain 2 of 3): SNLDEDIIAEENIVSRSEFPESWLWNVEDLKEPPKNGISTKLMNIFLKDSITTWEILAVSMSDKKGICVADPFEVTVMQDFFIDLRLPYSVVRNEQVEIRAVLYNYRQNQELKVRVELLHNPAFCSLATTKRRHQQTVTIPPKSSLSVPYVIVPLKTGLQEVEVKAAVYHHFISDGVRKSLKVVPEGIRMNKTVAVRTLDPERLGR
T1 sequence (P01024 1321-1663 limits assumed, chain 3 of 3): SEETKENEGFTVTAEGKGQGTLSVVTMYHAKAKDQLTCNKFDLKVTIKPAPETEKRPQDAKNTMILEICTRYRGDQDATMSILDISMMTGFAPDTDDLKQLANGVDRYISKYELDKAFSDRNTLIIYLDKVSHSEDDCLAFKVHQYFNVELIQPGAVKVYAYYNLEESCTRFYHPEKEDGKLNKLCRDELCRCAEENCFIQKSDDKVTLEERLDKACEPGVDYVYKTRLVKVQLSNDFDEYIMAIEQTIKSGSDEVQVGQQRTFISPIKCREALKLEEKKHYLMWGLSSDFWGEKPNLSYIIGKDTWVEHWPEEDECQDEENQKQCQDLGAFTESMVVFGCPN
Protocol: (§1) The binding affinity of Peptide 2 was evaluated in a competitive microscale thermophoresis assay, using a Monolith NT.115 instrument (NanoTemper Technologies GmbH, Munich, Germany). Competition was performed against the Competition Peptide, labeled with Cy5 for signal detection. Two different 1:1 serial dilution series of Peptide 2 were performed in MST buffer (50 mM Tris-HCl, 150 mM NaCl, 10 mM MgCl₂, 0.05% Tween 20). The first dilution series started with a final concentration of 333 μM and ended in a final concentration of 40.69 nM, while the second dilution series started with a final concentration of 166.67 μM and ended in a final concentration of 20.35 nM. To each dilution series of Peptide 2, purified C3c (Complement Technology) and the Competition Peptide (unlabeled form) were dissolved to final concentrations of 117 nM (Peptide 2) and 50 nM (Competition Peptide). The resulting mixture was incubated for 15 minutes in the dark at room temperature. Following the incubation, the samples were loaded into hydrophilic capillary tubes and the thermophoretic response of the fluorescently labeled marker was measured. […]
(§2) The binding affinity of Peptide 2 to C3c was determined using the microscale thermophoresis assay described herein. […]

[7] = target: T1, purified C3c (Complement Technology); test: competitive microscale thermophoresis: Peptide 2 titrated against C3c in the presence of the Cy5-labeled Competition Peptide, mean±SEM of 7 replicates
Protocol: The labeled form of the Competition Peptide was used. Thermophoretic data is plotted as mean±SEM from 7 replicate experiments, together with the fitted binding curve. The dotted lines in red indicate the 95% confidence interval of the fitted binding curve. The black dotted line represents the baseline thermophoretic response in the absence of binding. The inset table indicates the KD±SEM.
as §1, with “To each dilution series of Peptide 2, purified C3c (Complement Technology) and the Competition Peptide (unlabeled form) were dissolved to final concentrations of 117 nM (Peptide 2) and 50 nM (Competition Peptide). The resulting mixture was incubated for 15 minutes in the dark at room temperature.” left out
as §2

## CC[C@H](C)[C@H](N)C(=O)N[C@H]1CSSC[C@@H](C(=O)N[C@H](C(N)=O)[C@@H](C)O)NC(=O)[C@H](CCCN=C(N)N)NC(=O)[C@H](Cc2cnc[nH]2)NC(=O)[C@H](Cc2cnc[nH]2)NC(=O)CNC(=O)[C@H](Cc2c[nH]c3ccccc23)NC(=O)[C@H](CC(=O)O)NC(=O)[C@H](CCC(N)=O)NC(=O)[C@H](C(C)C)NC(=O)[C@H](C(C)C)NC1=O [compstatin, ICVVQDWGHHRCT]
Complement activation [1]
  IC50: ~12900 nM

## CC[C@H](C)[C@H](NC(=O)[C@H](CO)NC(=O)[C@H](CCCNC(=N)N)NC(C)=O)C(=O)N[C@H]1CSSC[C@@H](C(=O)N[C@H](C(=O)NCCOCCOCCOCCOCCOCCOCCOCCOCCC(N)=O)[C@@H](C)O)NC(=O)[C@H](CCCNC(=N)N)NC(=O)[C@H](Cc2c[nH]cn2)NC(=O)[C@H](C)NC(=O)CNC(=O)[C@H](Cc2c[nH]c3ccccc23)NC(=O)[C@H](CC(=O)O)NC(=O)[C@H](CCC(N)=O)NC(=O)[C@H](Cc2c[nH]c3ccccc23)NC(=O)[C@H](C(C)C)NC1=O [Peptide 2, Ac-RSI[CVWQDWGAHRC]T-PEG8-NH2]
Complement activation [2]
  IC50: 960 nM
[3]
  apparent solubility (comparison): significantly higher apparent solubility than the parent Peptide 1 and the Competition Peptide
[3]; absorbance at 280 nm
  slope of correlation between calculated and observed concentrations: 0.92
[4]
  reduction in NHS-induced basal C5b-9n deposition: 80%
[4]; formation of C5b-9-rich sub-RPE deposits
  inhibitory effect relative to parent Peptide 1: two-fold greater inhibitory effect

## Ac-RSI[CVWQDWGAHRC]T-NH2 (Ac-RSICVWQDWGAHRCT-NH2; disulfide 4-14) [Peptide 1, reference compound]
[4]
  reduction in NHS-induced basal C5b-9n deposition: 50%

B1: Peptide 1, Ac-RSI[CVWQDWGAHRC]T-NH2 (peptide)
peptide: Ac-RSICVWQDWGAHRCT-NH2
modifications: disulfide 4-14
[5]
  Mean IC50, hemolytic assay (rabbit erythrocytes, normal human serum, alternative pathway): 970 nM

B2: Competition Peptide, unlabeled, Ac-I[CVWQDWGAHRC]TAGK-NH2 (peptide)
peptide: Ac-ICVWQDWGAHRCTAGK-NH2
modifications: disulfide 2-12
SMILES: CC[C@H](C)[C@H](NC(C)=O)C(=O)N[C@H]1CSSC[C@@H](C(=O)N[C@H](C(=O)N[C@@H](C)C(=O)NCC(=O)N[C@@H](CCCCN)C(N)=O)[C@@H](C)O)NC(=O)[C@H](CCCNC(=N)N)NC(=O)[C@H](Cc2c[nH]cn2)NC(=O)[C@H](C)NC(=O)CNC(=O)[C@H](Cc2c[nH]c3ccccc23)NC(=O)[C@H](CC(=O)O)NC(=O)[C@H](CCC(N)=O)NC(=O)[C@H](Cc2c[nH]c3ccccc23)NC(=O)[C@H](C(C)C)NC1=O
[5]
  Mean IC50, hemolytic assay (rabbit erythrocytes, normal human serum, alternative pathway): 1400 nM

B3: Peptide 2, Ac-RSI[CVWQDWGAHRC]T-PEG8-NH2 (peptide)
peptide: Ac-RSICVWQDWGAHRCT-{PEG8′-NH2}
modifications: disulfide 4-14
notes: Synthetic compstatin analog with an Arg-Ser N-terminal extension and a C-terminal PEG8; molecular mass 2279; also called PEGylated Peptide 2; PEGylated compstatin peptide
[5]
  Mean IC50, hemolytic assay (rabbit erythrocytes, normal human serum, alternative pathway): 960 nM
[6]
  Kd: 690 nM
[7]
  IC50 (read off the curve): ~700 nM
